# From patent publication US20240353769A1, “ELECTROPHOTOGRAPHIC PHOTORECEPTOR, COATING LIQUID FOR FORMING ELECTROPHOTOGRAPHIC PHOTORECEPTOR PROTECTIVE LAYER, COMPOUND, ELECTROPHOTOGRAPHIC PHOTORECEPTOR CARTRIDGE, AND IMAGE FORMATION DEVICE” (MITSUBISHI CHEMICAL CORPORATION, priority 2021, published 2024)
# Experiment: Evaluation of solubility in organic solvent (visual)
# Type: physicochemical
# Parameters: key: A (good): The compound dissolved completely at room temperature.; B (poor): Undissolved compound was observed at room temperature
# Conditions: eight parts by mass in 100 parts by mass mixed solvent (19 mass % THF, 38 mass % TL, 43 mass % 2-PrOH), 25° C., stirred 10 minutes
# Description: To 100 parts by mass of a mixed solvent of tetrahydrofuran (appropriately abbreviated to as THF below), toluene (appropriately abbreviated to as TL below) and 2-propanol (appropriately abbreviated to as 2-PrOH below) (19 mass % THF, 38 mass % TL and 43 mass % 2-PrOH, 25° C.), eight parts by mass of the compound 1 or 2 or the comparative compound 1 was added, and without heating or cooling, the mixtures were stirred with a rotor for 10 minutes. Then, the dissolution states were observed visually, and the solubility was evaluated by the following criteria.
row,Solubility,SMILES
1,A,C=C(C)C(=O)OCC(COC(=O)C(=C)C)OC(=O)CCC(=O)Oc1cccc(C(C)C2=C/C(=C3/C=C(C(C)c4cccc(OC(=O)CCC(=O)OC(COC(=O)C(=C)C)COC(=O)C(=C)C)c4)C(=O)c4ccccc43)c3ccccc3C2=O)c1 (stereo not drawn) [Compound 2]
2,A,C=CC(=O)OCCOC(=O)CCC(=O)Oc1cccc(C(C)C2=C/C(=C3/C=C(C(C)c4cccc(OC(=O)CCC(=O)OCCOC(=O)C=C)c4)C(=O)c4ccccc43)c3ccccc3C2=O)c1 (stereo not drawn) [Compound 1]
3,B,"CCC(C)(C)C1=C/C(=C2/C=C(C(C)(C)CC)C(=O)c3ccccc32)c2ccccc2C1=O [Comparative Compound 1, reference compound]"
